Consider 22 compounds from patent US8153808B2, “Dihydropyridone amides as P2X7 modulators” (Roche Palo Alto LLC, priority 2008, dated 2012).

The target in this experiment is T1, P2X7 (UniProt Q99572).
T1 sequence (Q99572 1-595): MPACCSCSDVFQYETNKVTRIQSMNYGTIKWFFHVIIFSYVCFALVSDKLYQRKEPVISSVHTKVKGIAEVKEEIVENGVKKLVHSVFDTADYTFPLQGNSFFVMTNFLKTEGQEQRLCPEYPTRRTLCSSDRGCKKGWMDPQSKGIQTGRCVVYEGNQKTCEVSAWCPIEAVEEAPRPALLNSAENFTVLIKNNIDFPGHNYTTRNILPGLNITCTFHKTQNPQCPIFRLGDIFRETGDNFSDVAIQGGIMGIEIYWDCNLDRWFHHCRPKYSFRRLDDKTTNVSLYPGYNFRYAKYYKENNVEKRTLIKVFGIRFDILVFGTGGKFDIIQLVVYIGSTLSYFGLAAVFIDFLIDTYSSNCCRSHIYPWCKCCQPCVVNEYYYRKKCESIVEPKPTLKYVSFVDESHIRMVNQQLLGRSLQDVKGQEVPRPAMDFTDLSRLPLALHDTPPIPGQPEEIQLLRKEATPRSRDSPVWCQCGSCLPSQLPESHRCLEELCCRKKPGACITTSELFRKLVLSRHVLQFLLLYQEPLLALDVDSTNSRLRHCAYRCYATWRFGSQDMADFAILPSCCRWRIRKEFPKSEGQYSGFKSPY
Nature of the experiment: pIC50 values for P2X7 (Table 1). In kind it is cell-based. As for the experimental part: Intracellular Calcium Flux (FLIPR) Assay
Stock solutions of compounds were prepared from powders as a 10 mM DMSO stock solution. These solutions were stored at RT during the two week period of these experiments to prevent freeze-thaw of the DMSO stocks. The DMSO stocks were added to the appropriate assay buffer at a concentration of 10 μM, and then diluted serially to the final concentrations that were tested. […] The aqueous solutions of compounds as well as ATP (Sigma A7699) and BzATP (Sigma B6396) were prepared fresh for each day of experiment.
1321N1 cells stably expressing the full length human P2X7 gene (1321N1-hP2X7) and HEK293 cells stably expressing the full length rat P2X7 gene (HEK293-rP2X7) were obtained from the Roche Cell Culture Facility. 1321N1-hP2X7 cells were grown in Dulbecco's Modified Eagle's Medium (DMEM) high glucose supplemented with 10% FBS and 250 μg/mL G418. HEK293-rP2X7 cells were grown in DMEM/F-12 supplemented with 10% FBS, 1 mM CaCl2, 2 mM MgCl2, 2 mM L-Glutamine and 500 μg/ml G418. Cells were split such that they never became >70% confluent.
On the day prior to the experiment, 1321N1-hP2X7 or HEK293-rP2X7 cells were released into suspension with calcium-free PBS+Versene and washed by centrifugation with calcium-free PBS to remove the Versene. Cells were resuspended in growth medium at a density of 2.5×10^5 cells/mL and seeded into black walled, clear bottom 96 well plates (50,000 cells/well) approximately 18 hr prior to intracellular calcium flux experiments.
On the day of the experiment, plates were washed with FLIPR buffer (calcium- and magnesium-free Hank's Balanced Salt Solution (HBSS) supplemented with 10 mM Hepes, 2.5 mM probenecid and 2 mM calcium chloride) using a BIO-TEK 96 channel plate washer and incubated with […] fluo-3 dye at 37° C. for one hr. The dye was then removed by plate washing and the cells were allowed to equilibrate for 20 min at room temperature with antagonist or vehicle (FLIPR buffer). Agonist (100 μM BzATP final concentration for hP2X7; 5 μM BzATP final concentration or rP2X7) was added online with the FLIPR and fluorescence measurements made at 1 sec intervals for 60 sec followed by 3 sec intervals for a further 4 min (5 min total). A final addition of 5 μM ionomycin was made and the maximal BzATP-evoked fluorescence normalized to the maximal ionomycin-evoked fluorescence.
As to `COc1cc(CC(=O)N2C=CC(=O)C[C@H]2c2ccc(F)cc2)c(Br)cc1Cl` [Compound 30, (S)-1-[2-(2-Bromo-4-chloro-5-methoxy-phenyl)-acetyl]-2-(4-fluoro-phenyl)-2,3-dihydro-1H-pyridin-4-one], the “pIC50 P2X7” value is recorded as 6.4.

Regarding `COc1cc(CC(=O)N2C=CC(=O)CC2c2ccc(F)cc2)c(Br)cc1C` (stereo not shown) [Compound 31, 1-[2-(2-Bromo-5-methoxy-4-methyl-phenyl)-acetyl]-2-(4-fluoro-phenyl)-2,3-dihydro-1H-pyridin-4-one], the “pIC50 P2X7” value is recorded as 6.59. Then `COc1cc(CC(=O)N2C=CC(=O)CC2c2ccc(F)cc2)c(Br)cc1Cl` (stereo not shown) [Compound 32, 1-[2-(2-Bromo-4-chloro-5-methoxy-phenyl)-acetyl]-2-(4-fluoro-phenyl)-2,3-dihydro-1H-pyridin-4-one], with 6.17. The same measure for `Cc1cc(Br)c(CC(=O)N2C=CC(=O)CC2c2ccc(F)cc2)cc1O` (stereo not shown) [Compound 33, 1-[2-(2-Bromo-5-hydroxy-4-methyl-phenyl)-acetyl]-2-(4-fluoro-phenyl)-2,3-dihydro-1H-pyridin-4-one]: 6.18; for `COc1cc(Br)c(CC(=O)N2C=CC(=O)CC2CC2CCCCC2)cc1OC` (stereo not shown) [Compound 34, 1-[2-(2-Bromo-4,5-dimethoxy-phenyl)-acetyl]-2-cyclohexylmethyl-2,3-dihydro-1H-pyridin-4-one]: 5.94; for `COc1cc(Br)c(CC(=O)N2C=CC(=O)CC2c2cccc(F)c2)cc1OC` (stereo not shown) [Compound 35, 1-[2-(2-Bromo-4,5-dimethoxy-phenyl)-acetyl]-2-(3-fluoro-phenyl)-2,3-dihydro-1H-pyridin-4-one]: 6.815.

In the case of `COc1cc(CC(=O)N2C=CC(=O)C[C@H]2c2ccc(F)cc2)c(Br)cc1F` [Compound 36, (S)-1-[2-(2-Bromo-4-fluoro-5-methoxy-phenyl)-acetyl]-2-(4-fluoro-phenyl)-2,3-dihydro-1H-pyridin-4-one], the “pIC50 P2X7” value stood at 7.55. Regarding `COc1cc(Br)c(CC(=O)N2C=CC(=O)CC2c2cccc(C)c2)cc1OC` (stereo not shown) [Compound 37, 1-[2-(2-Bromo-4,5-dimethoxy-phenyl)-acetyl]-2-m-tolyl-2,3-dihydro-1H-pyridin-4-one], the “pIC50 P2X7” value came out at 6.425. Turning to `COc1cc(Br)c(CC(=O)N2C=CC(=O)CC2c2ccc(C)cc2)cc1OC` (stereo not shown) [Compound 38, 1-[2-(2-Bromo-4,5-dimethoxy-phenyl)-acetyl]-2-p-tolyl-2,3-dihydro-1H-pyridin-4-one], the “pIC50 P2X7” value was found to be 5.325. Then `COc1cc(Br)c(CC(=O)N2C=CC(=O)CC2c2cccc(C#N)c2)cc1OC` (stereo not shown) [Compound 39, 3-{1-[2-(2-Bromo-4,5-dimethoxy-phenyl)-acetyl]-4-oxo-1,2,3,4-tetrahydro-pyridin-2-yl}-benzonitrile], with 5.45. Then `COc1ccc(CC(=O)N2C=CC(=O)CC2c2ccc(F)cc2)c(OC)c1` (stereo not shown) [Compound 40, 1-[2-(2,4-Dimethoxy-phenyl)-acetyl]-2-(4-fluoro-phenyl)-2,3-dihydro-1H-pyridin-4-one], with 5.843; and `COc1cc(Br)c(CC(=O)N2C=CC(=O)C[C@H]2c2cccc(F)c2)cc1OC` [Compound 41, (S)-1-[2-(2-Bromo-4,5-dimethoxy-phenyl)-acetyl]-2-(3-fluoro-phenyl)-2,3-dihydro-1H-pyridin-4-one], with 7.94; and `COc1ccc(OC)c(CC(=O)N2C=CC(=O)CC2c2ccc(F)cc2)c1` (stereo not shown) [Compound 42, 1-[2-(2,5-Dimethoxy-phenyl)-acetyl]-2-(4-fluoro-phenyl)-2,3-dihydro-1H-pyridin-4-one], with 5.995. The same measure for `COCCOc1cc(CC(=O)N2C=CC(=O)C[C@H]2c2ccc(F)cc2)c(Br)cc1F` [Compound 43, (S)-1-{2-[2-Bromo-4-fluoro-5-(2-methoxy-ethoxy)-phenyl]-acetyl}-2-(4-fluoro-phenyl)-2,3-dihydro-1H-pyridin-4-one]: 7.89; for `COc1ccc(CC(=O)N2C=CC(=O)C[C@H]2c2ccc(F)cc2)cc1OC` [Compound 44, (S)-1-[2-(3,4-Dimethoxy-phenyl)-acetyl]-2-(4-fluoro-phenyl)-2,3-dihydro-1H-pyridin-4-one]: 6.003. As for `COc1ccc(CC(=O)N2C=CC(=O)C[C@H]2c2cccc(F)c2)cc1OC` [Compound 45, (S)-1-[2-(3,4-Dimethoxy-phenyl)-acetyl]-2-(3-fluoro-phenyl)-2,3-dihydro-1H-pyridin-4-one], the “pIC50 P2X7” value was determined as 6.006. The same measure for `O=C1C=CN(C(=O)Cc2cc(OCCO)c(F)cc2Br)[C@H](c2ccc(F)cc2)C1` [Compound 46, (S)-1-{2-[2-Bromo-4-fluoro-5-(2-hydroxy-ethoxy)-phenyl]-acetyl}-2-(4-fluoro-phenyl)-2,3-dihydro-1H-pyridin-4-one]: 7.31. Regarding `COc1cc(F)c(CC(=O)N2C=CC(=O)C[C@H]2c2ccc(F)cc2)cc1OC` [Compound 47, (S)-1-[2-(2-Fluoro-4,5-dimethoxy-phenyl)-acetyl]-2-(4-fluoro-phenyl)-2,3-dihydro-1H-pyridin-4-one], the “pIC50 P2X7” value is on record as 6.4.

Take `COc1cc(F)c(CC(=O)N2C=CC(=O)C[C@H]2c2cccc(F)c2)cc1OC` [Compound 48, (S)-1-[2-(2-Fluoro-4,5-dimethoxy-phenyl)-acetyl]-2-(3-fluoro-phenyl)-2,3-dihydro-1H-pyridin-4-one]: the “pIC50 P2X7” value was 6.55. Then `Cc1cc(F)c(OCCO)cc1CC(=O)N1C=CC(=O)C[C@H]1c1ccc(F)cc1` [Compound 49, (S)-1-{2-[4-Fluoro-5-(2-hydroxy-ethoxy)-2-methyl-phenyl]-acetyl}-2-(4-fluoro-phenyl)-2,3-dihydro-1H-pyridin-4-one], with 7.12; and `O=C1C=CN(C(=O)Cc2cc(OCCO)c(F)cc2Br)[C@H](c2cccc(F)c2)C1` [Compound 50, (S)-1-{2-[2-Bromo-4-fluoro-5-(2-hydroxy-ethoxy)-phenyl]-acetyl}-2-(3-fluoro-phenyl)-2,3-dihydro-1H-pyridin-4-one], with 7.65; and `COc1cc(Cl)c(CC(=O)N2C=CC(=O)C[C@H]2c2ccc(F)cc2)cc1OC` [Compound 51, (S)-1-[2-(2-Chloro-4,5-dimethoxy-phenyl)-acetyl]-2-(4-fluoro-phenyl)-2,3-dihydro-1H-pyridin-4-one], with 7.77.
